Results on 12 compounds are retold here after PubChem BioAssay (NCI).

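Where inhibition never reached the appropriate level, the endpoint shown equals the highest concentration tested. Otherwise, values were interpolated linearly from a five-concentration, 48-hour dose response in 96-well plates. Abbreviation: GI50, concentration required for 50% inhibition of growth. TGI denotes the concentration required for complete inhibition of growth.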

Test in all cases: NCI-60 cell line screen, 48 h
Assay [1] concerns SW-620 colon.
Assay [2] deals with UACC-257 melanoma.
Assay [3] deals with SN12C renal.
The subject of assay [4] is HCT-15 colon.
Assay [5] relates to SNB-75 CNS.
The subject of assay [6] is OVCAR-4 ovarian.
The test system of assay [7] is OVCAR-8 ovarian.
For assay [8], the system named is ACHN renal.
Assay [9] relates to K-562 leukemia.
For assay [10], the system named is A549 NSCLC.

As to `CC1OC2=N[C@@H]1C(=O)N[C@@H](C(C)C)C1=N[C@H](C(=O)N[C@@H](C(C)C)C3=N[C@H](C(=O)N[C@@H](C(C)C)C4=N[C@H](C(=O)N[C@H]2C(C)C)C(C)O4)C(C)O3)C(C)O1` (some centres not stated), the TGI in assay [1], in [2], in [3], in assay [4], in [5] and in [6] was over 10 µM throughout. For the same compound, the TGI in assay [7], in assay [8] and in [9] was over 10 µM throughout.

For the compound `O=C(c1ccc(Cl)cc1)c1ccc(OCCCCCCCCCCOc2ccc(C(=O)c3ccc(Cl)cc3)cc2)cc1`, the TGI in [1], in assay [2], in [3], in [4], in [5] and in assay [10] was over 100 µM each time. Further, the TGI in assay [7], in [8] and in assay [9] was over 100 µM in each case.

With `FC(F)(F)c1cc(-c2nnc3n2N=C(N2CCCC2)CS3)cc(C(F)(F)F)c1`, the GI50 in [1] is over 50 µM; in assay [2], over 50 µM; in [3] it was over 50 µM; in assay [4], over 50 µM; in assay [5] it was 7.12 µM; in [6] it was over 50 µM. Also, the GI50 in assay [7] is 32.9 µM; in assay [8], 10 µM; in assay [9], over 50 µM. Moreover, the TGI in assay [1] was over 50 µM; in [2], over 50 µM; in [3] it was over 50 µM; in [4], over 50 µM; in assay [5], 24.4 µM; in assay [6], over 50 µM. In addition, the TGI in assay [7], in assay [8] and in assay [9] was over 50 µM throughout.

For `CCOC(=O)C1(Br)C(c2ccccc2)NC(=O)NC1(C)Br` (configuration not stated), the TGI in [2], in [3], in assay [4], in [5], in assay [10] and in assay [6] was over 100 µM in each case. Also, the results for the TGI in assay [7], in assay [8] and in assay [9] were over 100 µM, over 100 µM and over 94.5 µM, respectively. In addition, the GI50 in assay [6] is 30.3 µM.

Take `CCCCc1c2c(nc3c1CCc1cc4cc5c(nc4nc1-3)-c1nc3c(c(CCCC)c1CC5)CCCC3)CCCC2`: the TGI in assay [1], in assay [2], in assay [3], in [4], in assay [5] and in assay [10] was over 100 µM each time. The TGI in [7], in assay [8] and in assay [9] was over 100 µM throughout.

`Nc1nc2c(c(=O)[nH]1)NC(CO)CN2` (configuration not stated): the TGI was over 100 µM in assay [1]; 64.3 µM in assay [2]; over 100 µM in [3]; over 100 µM in assay [4]; over 100 µM in [5]; over 100 µM in assay [10]. Also, the TGI in assay [7], in [8] and in assay [9] was over 100 µM in each case.

`CCc1cccc(C(C)C)c1NC(=O)C(=O)CC(=O)c1c(C)n([O-])c2ccccc2[n+]1=O`: the TGI in assay [1], in [3], in assay [4], in assay [5], in assay [10] and in assay [6] was over 100 µM throughout. For the same compound, the TGI in assay [7], in assay [8] and in assay [9] was over 100 µM in each case.

`C1C[OH+]CC[OH+]CCNCC[OH+]CC[OH+]CCN1.[Cl-].[Pt+4]`: the GI50 in assay [1] is 57.3 µM; in assay [2], over 100 µM; in assay [3], over 100 µM; in [5], over 100 µM; in [10] it was over 100 µM; in assay [6] it was over 100 µM. The GI50 in [7], in assay [8] and in assay [9] was over 100 µM throughout. Besides, the TGI in assay [1], in assay [2], in assay [3], in assay [5], in [10] and in assay [6] was over 100 µM throughout. Further, the TGI in assay [7], in assay [8] and in [9] was over 100 µM in each case.

Take `CCCCCCCCCCCCCCN`: the TGI in assay [1], in assay [2], in [3], in assay [4], in [5] and in assay [6] was over 100 µM in each case. The TGI in assay [7], in assay [8] and in assay [9] was over 100 µM throughout.

As to `COC(=O)C(C(=O)C(=O)Nc1ccc(C(F)(F)F)cc1[N+](=O)[O-])c1csc(-n2nc(-c3ccccc3)cc2-c2ccccc2)n1` (configuration not stated), the TGI in assay [1], in assay [2], in [3], in [4], in [5] and in assay [10] was over 100 µM each time. The TGI in [6], in [7] and in assay [9] was over 100 µM in each case.

Turning to `CCO/C=C/C(C)C1(C(=O)OCC)CCCCC1=O` (configuration not stated), the TGI in [2], in [3], in assay [4], in [5], in [10] and in assay [6] was over 100 µM in each case. Further, the TGI in [7], in assay [8] and in assay [9] was over 100 µM throughout.

In the case of `CS(=O)(=O)OCCN1CCN(C(=O)c2cccc3c(Nc4ccc(S(=O)(=O)N=C(N)N)cc4)c4ccccc4nc23)CC1`, the TGI in [2], in assay [3], in assay [4], in [5], in [10] and in assay [6] was over 100 µM in each case. The TGI in [7], in assay [8] and in assay [9] was over 100 µM throughout.
